Data on four compounds can be found in patent US8945061B2, “Otic formulations, methods and devices” (Entrx LLC, priority 2012, dated 2015).

Values after ≈ are worked out from the molar mass of the structure shown.

For assay [1], the system named is 22 Candida spp. and 10 Aspergillus spp. Conditions: all yeasts and moulds tested; judged from high MICs.
Assay [2] deals with C. albicans. Conditions: n=5 strains, 48 hours, prominent growth reduction endpoint.
Assay [3] has as its system C. glabrata. Conditions: n=5 strains, 48 hours, prominent growth reduction endpoint.
Assay [4] has as its system C. krusei. Conditions: n=5 strains, 48 hours, prominent growth reduction endpoint.
The test system of assay [5] is C. tropicalis. Conditions: n=5 strains, 48 hours, prominent growth reduction endpoint.
The subject of assay [6] is C. parapsilosis. Conditions: n=1 strain, 48 hours, prominent growth reduction endpoint.
Assay [7] deals with C. lusitaniae. Conditions: n=1 strain, 48 hours, prominent growth reduction endpoint.
In assay [8] the test system is A. fumigatus. Conditions: n=5 strains, 48 hours, prominent growth reduction endpoint.
Assay [9] deals with A. niger. Conditions: n=5 strains, 48 hours, prominent growth reduction endpoint.
Assay [10] deals with fungus and bacteria. Conditions: published literature; cited from earlier work.
Assay [11] relates to Staphlococcus aureus. Conditions: cited from earlier work.
Assay [12] concerns Pseudomonas. Conditions: cited from earlier work.

As to `O=C(O)c1cn(C2CC2)c2cc(N3CCNCC3)c(F)cc2c1=O` [CIPRO, ciprofloxacin], in assay [1], the “antifungal activity on its own” value is given as “no antifungal activity on its own”.

On to `Clc1ccccc1C(c1ccccc1)(c1ccccc1)n1ccnc1` [CTZ, clotrimazole], for which the MIC range result is “≦0.015 mcg/ml” in assay [2]; 0.25 to 1 µg/mL in assay [3]; 0.06 to 0.125 µg/mL in assay [4]; 0.06 to 2 µg/mL in [5]; 0.06 µg/mL (≈ 0.174 µM) in [6]; “≦0.015 mcg/ml” in assay [7]. For the same compound, the MIC range in assay [8] fell in the range of 0.25 to 0.5 µg/mL; in assay [9], 0.5 to 1 µg/mL. In addition, the “Spectrum of Efficacy” value in [10] is given as “Aspergillus fiavus, Aspergilius fumigatus, Blastomyces”. For the same compound, the antibacterial activity result in assay [11] and in [12] was “demonstrated antibacterial activity” throughout.

As for `C[C@@H]1[C@H](O)[C@@H](C)/C=C/C=C/CC/C=C/C=C/C=C/C=C/C(O[C@H]2O[C@H](C)[C@@H](O)[C@H](N)[C@@H]2O)CC2O[C@](O)(CC(O)C(O)CCC(O)CC(O)CC(O)CC(=O)O[C@H]1C)CC(O)C2C(=O)O` (some centres unmarked) [Nystatin, nystatin], the “Spectrum of Efficacy” value in [10] is listed as “primarily fungistatic at low concentrations against biphasic”.

`Cc1cccc(N(C)C(=S)Oc2ccc3ccccc3c2)c1` [tolnaftate]: the “Spectrum of Efficacy” value in assay [10] is “Fungistatic for dermatophytes and Tinea Versicoior”.
